# Data taken from US20070203248A1, “Cardioprotective agents” (DABUR RESEARCH FOUNDATION., priority 2003, published 2007).
# “And” between values parts separate entries of the source, which are not always exact repeats. Identical values can stand only once. Like-named read-outs stand apart in the source and are kept apart here.
# Experiments:
# [1] = tested on: Adriamycin treated animals
# Method: The effect of 5-Methoxy tryptamine on circulating CK-MB levels was quantitated as described. Briefly male Wistar rats of the age group 5-6 weeks were maintained on normal rat pellets ad libidum. Rats were divided into four groups viz. Groups I, II, III and IV.
# (§1) Group II: Animals treated with Adriamycin
# (§2) Group III: Animals treated with Adriamycin and 5-Methoxytryptamine
# Group IV: Animals treated with 5-Methoxytryptamine.
# Each group consisted of 6 animals. 5 mg/kg of Adriamycin was administered intraperitoneally to animals of groups II and III as two equal divided doses once every seven days. The animals comprising Group III were injected intraperitoneally with 17.5 mg/kg of 5-Methoxytryptamine, as seven equal doses given every alternate day. The animals of the group III were injected with 5-Methoxytryptamine, 30 minutes prior to the Adriamycin injection. The animals comprising Group IV were treated with 17.5 mg/kg of 5-Methoxytryptamine as seven equal doses, given every alternate day. At the 41st day of the study, blood was collected from the retroorbital vein of all the animals in the study. The blood was kept at room temperature for 15 minutes, and spun at 3000 rpm for 15 minutes. […] The quantitation was carried out by kits procured from Bayer Diagnostics using RA 50 Chemistry Analyzer (Bayer Diagnostics), as per the manufacturers instructions.
# [2] = tested on: Adriamycin treated rat myocardium; settings: for SOD (Superoxide Dismutase), myocardium: 24 hours
# Method: (§3) Briefly male Wistar rats of the age group 5-6 weeks were maintained on normal rat pellets ad libitum. Rats were divided into four groups viz. Groups I, II, III and IV.
# as §1
# Each group consisted of 5 animals. 30 mg/kg body weight of Adriamycin was administered intraperitoneally to animals in Groups II and III. […] 24 hours later, the beating hearts of the animals were excised by decapitation. The heart tissue was washed in ice cold saline twice, weighed and frozen for assaying Superoxide Dismutase activity.
# Briefly, 200 mg of rat myocardial tissue was excised and homogenized in 2 ml of ice cold Tris sucrose buffer (pH 7.4). The homogenate was centrifuged at 10000 rpm, at 4° C. for 10 minutes, and the supernatent carefully aspirated and collected. For each experiment, 1.2 ml of sodium pyrophosphate buffer was taken in clean glass tubes. To this 100 ul of 186 uM Phenazine methosulphate solution, 300 ul of a 300 uM solution of Nitroblue tetrazolium and 600 ul of double distilled water was added and mixed well. 600 ul of the supernatent obtained earlier was added per tube. A solution of NADH of the concentration 780 uM was freshly prepared for the experiments. The reaction in the tubes was initiated by the addition of 200 ul of a 780 uM solution of NADH per tube. The tubes were incubated for 90 seconds at room temperature. The reaction was stopped by the addition of 1 ml of 100% glacial acetic acid per tube and the absorbance measured spectrophotometrically at 560 nM. All experiments were carried out in triplicates. The control experiments contained only ice cold Tris Sucrose buffer (pH 7.4) treated identically. The standard tubes contained the enzyme Superoxide Dimutase dissolved in double distilled water in concentrations ranging from 0.1 U to 20 Units treated identically as above. The enzyme activity in the tissue homogenates was quantitated by rate of decrease in optical density at 560 nm, and expressed as units/mg protein. The Superoxide Dismutase activity was calculated for the cardiac tissues of the animals comprising Groups I, II, III and IV.
# [3] = tested on: Adriamycin treated rat myocardium; settings: for LP (lipid peroxidation), myocardium: 24 hours
# Source text: The effect of 5-Methoxytryptamine on lipid peroxidation in Adriamycin treated myocardial tissue was quantitated by Thiobarbituric acid reactive substances based assay as described (Uchiyama and Mihara, M., Anal. Biochem. 86, 271-278, 1978). Briefly male Wistar rats of the age group 5-6 weeks were maintained on normal rat pellets ad libitum. Rats were divided into four groups viz Groups I, II, III and IV.
# Group II, Animals treated with Adriamycin
# (§4) Group III: Animals treated with 5-Methoxytryptamine and Adriamycin.
# (§5) Group IV: Animals treated with 5 Methoxytryptamine
# Each group consisted of 5 animals. 30 mg/kg body weight of Adriamycin was administered intraperitoneally to animals in Groups II and III. The animals comprising group III, were injected intraperitoneally with 5-Methoxytryptamine in concentration ranging from 8.5-35 mg/kg body weight 30 minutes prior to the Adriamycin treatment. The animals comprising group IV, were injected intraperitoneally with 5-Methoxytryptamine in concentration ranging from 8.5-35 mg/kg body weight. 24 hours later, the beating hearts of the animals were excised by decapitation. The heart tissue was washed in ice cold saline twice, weighed and snap frozen at −70° C. for assaying for Lipid peroxidation.
# Briefly 200 mg of the live rat myocardial tissue was excised and homogenized in 2 ml of ice cold 10% Trichloro acetic acid buffer (TCA) buffer. To 200 ul of the homogenate thus obtained, 200 ul of 8.1% SDS, 1.5 ml of 20% Acetic acid, 1.5 ml of 0.8% of Thiobarbituric acid (TBA) and 1.0 ml of water was added in glass test tubes. The tubes were heated at 95° C. for 60 minutes. The mixture was cooled and diluted with 1 ml of double distilled water. A mixture of n-butanol and pyridine was prepared fresh in the ratio of 15:1 respectively. 5 ml of the n-butanol-pyridine mix was added to each tube containing the cardiac tissue homogenates. The tubes were centrifuged at 3000 rpm for 10 minutes at 4° C. 200 ul of the coloured liquid was collected from at the interphase of the aqueous and organic layers and the absorbance was measured spectrophotometrically at 532 nm. The control experiments contained only the TCA buffer treated similarly. The standard tubes contained Malonaldehyde in concentrations ranging from 2.5-25 uM. Malonaldehyde was dissolved in double distilled water. All experiments were carried out in triplicates. The extent of lipid peroxidation in the cardiac homogenates was expressed as uM/gm of the cardiac tissue. The extent of lipid peroxidation was calculated for the cardiac tissues of the animals comprising Groups I, II, III and IV.
# [4] = DPPH free radical scavenging assay in vitro; assay type: biochemical; settings: for Mean percent Radical scavenging: DPPH, 5 minutes
# Method: The free radical scavenging potential of 5-Methoxytryptamine was evaluated by the 1,1 diphenyl-2 picryl hydrazyl (DPPH) assay as described (Hycon, Lee et al, Arch. Pharm. Res. 19 (3), 223-227). […] 5-Methoxytryptamine was dissolved in 3.5% ethanol in normal saline and screened for its radical scavenging activity in concentration ranging from 1-1000 ug/ml. 100 ul of 0.2 mM DPPH was incubated with 100 ul of varying concentrations of 5-Methoxy tryptamine in 96 well tissue culture plates for 20 seconds at room temperature. All experiments were carried out in triplicates. 3.5% ethanol in normal saline was similarly incubated with 0.2 mM DPPH in control experiments for evaluating the effect of the vehicle on radical scavenging. The change in absorbance of DPPH incubated with varying concentrations of 5-Methoxy tryptamine of the vehicle was read at 517 nm for every 60 secs for 5 minutes. The absorbance of 0.2 mM DPPH taken after incubating for 5 minutes at room temperature was the blank O.D. The percent free radical scavenging ability of 5-Methoxy tryptamine was calculated as defined below. Percent Free Radical scavenging=Blank OD at 5 minutes−Sample OD at 5 minutes×100/Blank OD at 5 minutes
# [5] = tested on: Adriamycin treated animals; remark: listed apart in the source
# Method: The effect of 5-Methoxytryptamine on circulating LDH levels was quantitated as described. Briefly male Wistar rats of the age group 5-6 weeks were maintained on normal rat pellets ad libidum. Rats were divided into four groups viz. Groups I, II, III and IV.
# as §1, §2, §5
# Each group consisted of 6 animals. 5 mg/kg of Adriamycin was administered intraperitoneally to animals of groups II and III as two equal divided doses once every seven days. The animals comprising Group III were injected intraperitoneally with 17.5 mg/kg of 5-Methoxytryptamine, as seven equal doses given every alternate day. The animals of the group III were injected with 5-Methoxytryptamine, 30 minutes prior to the Adriamycin injection. The animals comprising Group IV were treated with 17.5 mg/kg of 5-Methoxytryptamine as seven equal doses, given every alternate day. At the 41st day of the study, blood was collected from the retroorbital vein of all the animals in the study. The blood was kept at room temperature for 15 minutes, and spun at 3000 rpm for 15 minutes. […] The quantitation was carried out by kits procured from Bayer Diagnostics using RA 50 Chemistry Analyzer (Bayer Diagnostics), as per the manufacturer's instructions.
# [6] = tested on: Adriamycin treated rat liver tissue; settings: for LP (lipid peroxidation), liver: 24 hours
# Method: as §3, §1, §4
# Group IV: Animals treated with 5-Methoxytryptamine
# Each group consisted of 5 animals. 30 mg/kg body weight of Adriamycin was administered intraperitoneally to animals in Groups II and III. The animals comprising group III, were injected intraperitoneally with 5-Methoxytryptamine in concentrations ranging from 8.5-35 mg/kg body weight 30 minutes prior to the Adriamycin treatment. The animals comprising group IV, were injected intraperitoneally with 5-Methoxytryptamine in concentrations ranging from 8.5-35 mg/kg body weight. 24 hours later, the liver tissue of the animals were excised. The liver tissue was washed in ice cold saline twice, weighed and snap frozen at −70° C. for assaying for Lipid peroxidation.
# Briefly 200 mg of the rat liver tissue was excised and homogenized in 2 ml of ice cold 10% Trichloro acetic acid buffer (TCA) buffer. To 200 ul of the homogenate thus obtained, 200 ul of 8.1% SDS, 1.5 ml of 20% Acetic acid, 1.5 ml of 0.8% of Thiobarbituric acid (TBA) and 1.0 ml of water was added in glass test tubes. The tubes were heated at 95° C. for 60 minutes. The mixture was cooled and diluted with 1 ml of double distilled water. A mixture of n-butanol and pyridine was prepared fresh in the ratio of 15:1 respectively. 5 ml of the n-butanol-pyridine mix was added to each tube containing the liver tissue homogenates. The tubes were centrifuged at 3000 rpm for 10 minutes at 4° C. 200 ul of the colored liquid was collected from the interphase of the aqueous and organic layers and the absorbance was measured spectrophotometrically at 532 nm. The control experiments contained only the TCA buffer treated similarly. The standard tubes contained Malonaldehyde in concentrations ranging from 2.5-25 uM. Malonaldehyde was dissolved in double distilled water. All experiments were carried out in triplicates. The extent of lipid peroxidation in the liver homogenates was expressed as uM/gm of the liver tissue. The extent of lipid peroxidation was calculated for the liver tissues of the animals comprising Groups I, II, III and IV.
# human tumour cell lines = experiment: MTT cytotoxicity assay, effect of 5-Methoxytryptamine on anticancer activity of Adriamycin; assay type: cell-based; settings: 5-Methoxytryptamine at its highest concentration 1 ug/ml; MCF7, DU145, MiaPaCa2, HT 29
# Method: Adriamycin was dissolved in saline immediately before use. […] 1 ug/ml.
# [7] = Group IV: 5-Methoxytryptamine 17.5 mg/kg as seven doses every alternate day, alone, serum, day 41
# [8] = 8.5-35 mg/kg, 30 mg/kg doxorubicin
# [9] = Group IV A: 5 MT 8.5 mg/kg i.p. alone
# [10] = Group IV B: 5 MT 17 mg/kg i.p. alone
# [11] = Group IV C: 5 MT 35 mg/kg i.p. alone
smiles,measurement,setting,value
COc1ccc2[nH]cc(CCN)c2c1 [5-Methoxytryptamine],Effect on CK-MB levels in Adriamycin treated animals,"[1]; 17.5 mg/kg, Adriamycin 5 mg/kg",reduces the CK-MB levels
same,CK - MB,[1]; [7],379 ± 26 U/L
same,"Effect on Superoxide Dismutase activity in rat myocardium, alone",[2]; 8.5-35 mg/kg alone,did not alter the Superoxide Dismutase activity
same,Effect on Superoxide Dismutase activity in rat myocardium treated with Doxorubicin,[2]; [8],increases the Superoxide Dismutase activity
same,"SOD (Superoxide Dismutase), myocardium",[2]; [9],32 ± 2.5 U/mg
same,"SOD (Superoxide Dismutase), myocardium",[2]; [10],30 ± 2.9 U/mg
same,"SOD (Superoxide Dismutase), myocardium",[2]; [11],34 ± 4.5 U/mg
same,"Effect on lipid peroxidation in rat myocardial tissue, alone",[3]; 8.5-35 mg/kg alone,did not alter the lipid peroxidation
same,Effect on lipid peroxidation in rat myocardial tissue treated with doxorubicin,[3]; [8],inhibits the lipid peroxidation
same,"LP (lipid peroxidation), myocardium",[3]; [9],535 ± 12.5 µmol/g
same,"LP (lipid peroxidation), myocardium",[3]; [10],500 ± 14.5 µmol/g
same,"LP (lipid peroxidation), myocardium",[3]; [11],513 ± 12.3 µmol/g
same,Mean percent Radical scavenging,[4]; 31 ug/ml,10 ± 4.3%
same,Mean percent Radical scavenging,[4]; 62.5 ug/ml,25 ± 5.0%
same,Mean percent Radical scavenging,[4]; 125 ug/ml,75.4 ± 5.5%
same,Mean percent Radical scavenging,[4]; 250 ug/ml,85.24 ± 4.8%
same,Mean percent Radical scavenging,[4]; 500 ug/ml,87.4 ± 5.0%
same,Mean percent Radical scavenging,[4]; 1000 ug/ml,88.25% and 88.25 ± 5.1%
same,Concentration range in which free radicals are scavenged,[4]; DPPH in vitro,31 to 1000 µg/mL
same,Effect on LDH levels in Adriamycin treated animals,"[5]; 17.5 mg/kg, Adriamycin 5 mg/kg",reduces the LDH levels
same,LDH,[5]; [7],1009 ± 26 U/L
same,"Effect on lipid peroxidation in rat liver tissue, alone",[6]; 8.5-35 mg/kg alone,does not alter the lipid peroxidation
same,"LP (lipid peroxidation), liver",[6]; [9],601 ± 16.5 µmol/g
same,"LP (lipid peroxidation), liver",[6]; [10],625 ± 15.5 µmol/g
same,"LP (lipid peroxidation), liver",[6]; [11],630 ± 16.3 µmol/g
same,Effect of addition on ED50 values of the cytotoxicity of Adriamycin,human tumour cell lines,is not altered
